From patent US20080058426A1, “COMPOSITION AND METHOD FOR TREATING PSORIASIS” (priority 2006, published 2008) come the findings set out here.

A short description of the series: Safety of THC in the psoriasis clinical study. To be noted: human, in vivo. From the text: • Study Duration: 45 days • Population: 10 psoriasis affected subjects • Intervention: THC formulated as a cream with pharmaceutically acceptable carriers applied topically three times a day for 45 days.
The primary objective in this study was to determine the efficacy and safety of the THC cream. The parameters to detect the efficacy and safety of the medication included relief from the characteristic symptoms of psoriasis like itching, erythema, scaling, infiltration, and the extent of clearance of psoriasis lesions.

Turning to Tetrahydrocurcuminoids [THC], the Toxic side effects entry is reported as “devoid of toxic side effects”.
